Measured values taken from patent publication US20050137145A1, “Metabolites of 1-dimethylamino-3-(3-methoxy-phenyl)-2-methyl-pentan-3-ol and their use in the treatment of urinary incontinence” (Gruenenthal GmbH, priority 2002, published 2005).
Marks after values point to notes of the source that are not given here.

System: naive female Sprague-Dawley rats
Experiment: Cystometry test system on the conscious naive rat
Format: in vivo
Conditions: for BC bladder capacity (change relative to the preliminary value) / ICI inter-contraction interval (change relative to the preliminary value) / TP threshold pressure (change relative to the preliminary value): at maximum activity, mean of 3 miction cycles; for effect on bladder regulation (in words): summary of the cystometry results, i.v.
Experimental: Cystometric investigations were carried out on naive female Sprague-Dawley rats according to the method of Ishizuka et al. ((1997), Naunyn-Schmiedeberg's Arch. Pharmacol. 355: 787-793). Three days after the implantation of bladder and venous catheters, the animals, which were free to move, were studied in the conscious state. The bladder catheter was attached to a pressure transducer and an injection pump. The animals were placed in metabolic cages which allowed the volume of urine to be measured. Physiological saline solution was infused into the emptied bladder (10 ml/h) and the bladder pressure and miction volume were recorded continuously. After a stabilization phase, a 20-minute phase characterised by normal, reproducible miction cycles was recorded. The following parameters, inter alia, were determined: • threshold pressure (TP, bladder pressure immediately before miction), • bladder capacity (BC, residual volume after previous miction plus volume of solution infused during the filling phase), • inter-contraction interval (ICI, the time interval between mictions).
An increase in the threshold pressure (TP) indicates an important therapeutic activity in one of the indications according to the invention. The inter-contraction interval (ICI) is also an important parameter for measuring the physiological effectiveness of a substance in the treatment of urinary incontinence, as is the bladder capacity (BC). Because the causes of the symptoms of these disorders are highly heterogeneous, it is not necessary for all three parameters to be influenced positively in order for effectiveness to exist. It is, therefore, entirely satisfactory for a positive effect to be determined in only one of these parameters in order to be usable in urinary incontinence or increased urinary urgency.
After three reproducible miction cycles had been recorded as the preliminary value, the test substances 1 (1.0 mg/kg), 2 (0.1; 0.3 and 0.5 mg/kg), 21 (0.5 mg/kg) and 7 (0.3 mg/kg) were administered i.v. in the vehicle=0.9% NaCl and the effect on the cystometric parameters was recorded for 90 to 120 minutes. At the maximum activity, the mean of 3 miction cycles was determined and indicated as the percentage change relative to the preliminary value (Table 1).

SMILES | BC bladder capacity (change relative to the preliminary value) (1.0 mg/kg i.v.) | ICI inter-contraction interval (change relative to the preliminary value) (1.0 mg/kg i.v.) | TP threshold pressure (change relative to the preliminary value) (1.0 mg/kg i.v.) | BC bladder capacity (change relative to the preliminary value) (0.3 mg/kg i.v.) | ICI inter-contraction interval (change relative to the preliminary value) (0.3 mg/kg i.v.) | TP threshold pressure (change relative to the preliminary value) (0.3 mg/kg i.v.) | BC bladder capacity (change relative to the preliminary value) (0.1 mg/kg i.v.) | ICI inter-contraction interval (change relative to the preliminary value) (0.1 mg/kg i.v.) | TP threshold pressure (change relative to the preliminary value) (0.1 mg/kg i.v.) | BC bladder capacity (change relative to the preliminary value) (0.5 mg/kg i.v.) | ICI inter-contraction interval (change relative to the preliminary value) (0.5 mg/kg i.v.) | TP threshold pressure (change relative to the preliminary value) (0.5 mg/kg i.v.) | effect on bladder regulation (in words)
CC[C@](O)(c1cccc(OC)c1)[C@H](C)CN(C)C.Cl (racemic) [Compound 1, (2RS,3RS)-1-Dimethylamino-3-(3-methoxy-phenyl)-2-methyl-pentan-3-ol, hydrochloride] | +31%*** | +42% | +94%** |  |  |  |  |  |  |  |  |  | 
CCC(O)(c1cccc(O)c1)C(C)CN(C)C.Cl (racemic) [Compound 7, (2RS,3RS)-3-(3-Dimethylamino-1-ethyl-1-hydroxy-2-methyl-propyl)-phenol, hydrochloride] |  |  |  | +32%* | +28%* | +95%** |  |  |  |  |  |  | 
CC[C@](O)(c1cccc(OC)c1)[C@H](C)CN(C)C.Cl [Compound 2, (+)-(2R,3R)-1-Dimethylamino-3-(3-methoxy-phenyl)-2-methyl-pentan-3-ol, hydrochloride] |  |  |  | +33%* | +28%* | +122%** | +7.8% | +15.6% | +28.5%** | +20.6%* | +28.6%** | +77.5%** | very effective
CC[C@@](O)(c1cccc(OC)c1)[C@@H](C)CN(C)C.Cl [Compound 21, (−)-(2S,3S)-1-Dimethylamino-3-(3-methoxy-phenyl)-2-methyl-pentan-3-ol, hydrochloride] |  |  |  |  |  |  |  |  |  | +3% | +10% | −1.1% | does not make such a strong contribution to the action
